For 27 compounds, IC50 results are on record in patent US20240158392A1 (Janssen Biotech, Inc., priority 2021, published 2024).

A value given as a limit tells only on which side of the number the result lay.

The target in one assay is SIK2 (Homo sapiens, UniProt Q9H0K1). The assay can be described thus: SIK2 Enzymatic Assay High Version 2 (High ATP). Type of assay: biochemical.
Sequence of SIK2 (Q9H0K1 whole entry, species assumed): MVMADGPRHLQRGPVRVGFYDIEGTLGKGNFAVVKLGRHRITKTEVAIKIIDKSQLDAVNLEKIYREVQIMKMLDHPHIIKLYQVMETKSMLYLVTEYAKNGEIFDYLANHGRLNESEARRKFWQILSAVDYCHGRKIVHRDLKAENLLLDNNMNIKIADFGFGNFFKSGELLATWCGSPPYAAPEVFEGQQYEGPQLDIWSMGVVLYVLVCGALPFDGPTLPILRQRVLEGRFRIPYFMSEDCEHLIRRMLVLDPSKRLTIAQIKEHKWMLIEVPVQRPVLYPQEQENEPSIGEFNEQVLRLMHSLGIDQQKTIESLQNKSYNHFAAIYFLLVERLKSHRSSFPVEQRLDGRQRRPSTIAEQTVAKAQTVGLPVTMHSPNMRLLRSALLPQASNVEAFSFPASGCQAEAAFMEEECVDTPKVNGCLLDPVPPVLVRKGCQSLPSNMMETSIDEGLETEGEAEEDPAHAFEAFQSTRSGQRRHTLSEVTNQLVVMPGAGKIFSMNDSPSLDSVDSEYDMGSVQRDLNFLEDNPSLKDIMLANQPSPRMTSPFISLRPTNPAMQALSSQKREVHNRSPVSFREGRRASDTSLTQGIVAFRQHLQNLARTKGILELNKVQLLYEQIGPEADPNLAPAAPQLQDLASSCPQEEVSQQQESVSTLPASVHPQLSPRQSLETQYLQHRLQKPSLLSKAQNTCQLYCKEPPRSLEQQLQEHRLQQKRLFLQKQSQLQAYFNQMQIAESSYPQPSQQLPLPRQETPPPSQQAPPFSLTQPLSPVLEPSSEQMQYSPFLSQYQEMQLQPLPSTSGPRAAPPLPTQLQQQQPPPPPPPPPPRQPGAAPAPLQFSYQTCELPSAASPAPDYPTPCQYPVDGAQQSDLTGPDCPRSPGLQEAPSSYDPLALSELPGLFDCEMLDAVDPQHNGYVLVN
Conditions: not given
The gist of the method: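 At room temperature, enzyme (6 nM, 2× final) was preincubated with compound for 30 min, then 6 mM ATP and 400 μM HDAC5tide (both 2× final) were added for 2 h. ADP formed was measured by ADP-Glo Max (2 h reagent, 1 h detection) using luminescence.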
Usually IC50 stands for the concentration needed to halve the response being measured. With `CNC(=O)c1c(OC)cc(Nc2cc3cc(-c4cc(C)ncc4OC4C[C@H]5COC[C@@H](C4)N5)ccn3n2)cc1OC` (stereo partly drawn) [Example 357, 2,6-dimethoxy-N-methyl-4-[[5-[2-methyl-5-[[(1S,5R)-3-oxa-9-azabicyclo[3.3.1]nonan-7-yl]oxy]-4-pyridyl]pyrazolo[1,5-a]pyridin-2-yl]amino]benzamide], it took 0.00101 µM to reach half-maximal inhibition (IC50).
Same read-out and setting: with `Cc1cc(-c2ccn3nc(Nc4cc(C(F)(F)F)ccn4)cc3c2)c(O[C@H]2C[C@H]3COC[C@@H](C2)N3)cn1` [Example 378, 5-[2-methyl-5-[[(1S,5R,7s)-3-oxa-9-azabicyclo[3.3.1]nonan-7-yl]oxy]-4-pyridyl]-N-[4-(trifluoromethyl)-2-pyridyl]pyrazolo[1,5-a]pyridin-2-amine] the figure was less than 0.000847 µM; with `Cc1cc(-c2ccn3nc(Nc4cccc(C(F)(F)F)n4)cc3c2)c(O[C@H]2C[C@H]3COC[C@@H](C2)N3)cn1` [Example 366, 5-[2-methyl-5-[[(1S,5R, 7s)-3-oxa-9-azabicyclo[3.3.1]nonan-7-yl]oxy]-4-pyridyl]-N-[6-(trifluoromethyl)-2-pyridyl]pyrazolo[1,5-a]pyridin-2-amine], 0.00156 µM; with `Cc1cc(-c2ccn3nc(Nc4nn(C)cc4F)cc3c2)c(O[C@H]2C[C@H]3COC[C@@H](C2)N3C)cn1` [Example 118, N-(4-fluoro-1-methyl-1H-pyrazol-3-yl)-5-(2-methyl-5-(((1R,5S,7s)-9-methyl-3-oxa-9-azabicyclo[3.3.1]nonan-7-yl)oxy)pyridin-4-yl)pyrazolo[1,5-a]pyridin-2-amine], less than 0.000847 µM.
On to `Cc1cc(-c2cc3cc(NC(=O)C4CC4)nn3cn2)c(O[C@H]2C[C@H]3COC[C@@H](C2)N3C)cn1` [Example 319, N-[5-[2-methyl-5-[[(1S,5R)-9-methyl-3-oxa-9-azabicyclo[3.3.1]nonan-7-yl]oxy]-4-pyridyl]pyrazolo[1,5-c]pyrimidin-2-yl]cyclopropanecarboxamide], for which the 50% inhibitory concentration (IC50) was found to be 0.00194 µM.
Same read-out and setting: then `Cc1cc(-c2ccn3nc(Nc4ccc(C(=O)NC5CCOCC5)cn4)cc3c2)c(O[C@H]2C[C@H]3COC[C@@H](C2)N3)cn1` [Example 388, 6-[[5-[2-methyl-5-[[(1S,5R,7s)-3-oxa-9-azabicyclo[3.3.1]nonan-7-yl]oxy]-4-pyridyl]pyrazolo[1,5-a]pyridin-2-yl]amino]-N-tetrahydropyran-4-yl-pyridine-3-carboxamide], with 0.00103 µM.
On the same count and under the same terms, with `Cc1cc(-c2ccn3nc(Nc4cnc(C(=O)NCC(C)(C)O)cn4)cc3c2)c(O[C@H]2C[C@H]3COC[C@@H](C2)N3)cn1` [Example 390, N-(2-hydroxy-2-methyl-propyl)-5-[[5-[2-methyl-5-[[(1S,5R,7s)-3-oxa-9-azabicyclo[3.3.1]nonan-7-yl]oxy]-4-pyridyl]pyrazolo[1,5-a]pyridin-2-yl]amino]pyrazine-2-carboxamide] the figure was more than 50 µM.
On the same count and under the same terms, then `Cc1cc(-c2cn3cc(NC(=O)C4CC4)nc3cn2)c(O[C@H]2C[C@H]3COC[C@@H](C2)N3)cn1` [Example 505, N-[6-[2-methyl-5-[[(1S,5R)-3-oxa-9-azabicyclo[3.3.1]nonan-7-yl]oxy]-4-pyridyl]imidazo[1,2-a]pyrazin-2-yl]cyclopropanecarboxamide], with 0.012 µM.

Still in this assay, the particulars now being: enzyme 6 nM, 6 mM ATP and 400 μM HDAC5tide (each 2× final concentration); 30 minutes pre-incubation, 2 hours; ADP-Glo Max luminescence; read-out: SIK2 high ATP IC50 (μM) (Test Example 2).
Consider `CC#Cc1cc(-c2ccn3nc(NC(=O)C4CC4)cc3c2)c(OCC2(F)CNC2)cn1` [Example 434, N-[5-[5-[(3-fluoroazetidin-3-yl)methoxy]-2-prop-1-ynyl-4-pyridyl]pyrazolo[1,5-a]pyridin-2-yl]cyclopropanecarboxamide], for which the 50% inhibitory concentration (IC50) is less than 0.000847 µM.
On the same count and under the same terms, with `Cc1cc(Nc2cc3cc(-c4cc(Cl)ncc4OC[C@]45CN[C@H](CO4)C5)ccn3n2)nc(C)n1` [Example 303, 5-[2-chloro-5-[[(1S,4S)-5-oxa-2-azabicyclo[2.2.1]heptan-4-yl]methoxy]-4-pyridyl]-N-(2,6-dimethylpyrimidin-4-yl)pyrazolo[1,5-a]pyridin-2-amine] the figure was 0.000971 µM; with `Cc1ccc(Nc2cc3cc(-c4cc(C)ncc4OC[C@@H]4CNCCO4)ccn3n2)nc1` [Example 425, 5-[2-methyl-5-[[(2S)-morpholin-2-yl]methoxy]-4-pyridyl]-N-(5-methyl-2-pyridyl)pyrazolo[1,5-a]pyridin-2-amine], 0.00568 µM.
Still for that read-out and setting: with `COC(=O)c1ccc(Nc2cc3cc(-c4cc(C)ncc4O[C@H]4CC[C@H](O)CC4)ccn3n2)cc1OC` [Example 246, methyl 4-[[5-[5-(4-hydroxycyclohexoxy)-2-methyl-4-pyridyl]pyrazolo[1,5-a]pyridin-2-yl]amino]-2-methoxy-benzoate] the figure was 0.0441 µM; with `Cc1cc(-c2ccn3nc(Nc4cc(C)nc(C)n4)cc3c2)c(OC[C@@H]2CCC3(CCCC3)O2)cn1` (single isomer, unassigned) [Example 230, (*S)—N-(2,6-dimethylpyrimidin-4-yl)-5-[2-methyl-5-(9-oxaspiro[4.4]nonan-8-ylmethoxy)-4-pyridyl]pyrazolo[1,5-a]pyridin-2-amine], 0.0377 µM; with `Cc1cc(-c2ccn3nc(Nc4cc(C)nc(C)n4)cc3c2)c(OC[C@@]23CN[C@@H](CO2)C3)cn1` [Example 238, N-(2,6-dimethylpyrimidin-4-yl)-5-[2-methyl-5-[[(1R,4R)-5-oxa-2-azabicyclo[2.2.1]heptan-4-yl]methoxy]-4-pyridyl]pyrazolo[1,5-a]pyridin-2-amine], 0.00226 µM.
Same read-out and setting: with `Cc1cnc(Nc2cc3cc(-c4cc(C)ncc4OCC(C)(C)O)ccn3n2)cn1` [Example 541, 2-methyl-1-[[6-methyl-4-[2-[(5-methylpyrazin-2-yl)amino]pyrazolo[1,5-a]pyridin-5-yl]-3-pyridyl]oxy]propan-2-ol] the figure was 0.0471 µM; with `Cc1cc(-c2ccn3nc(Nc4ccc5cc[nH]c5n4)cc3c2)c(OCC(C)(C)C#N)cn1` [Example 307, 2,2-dimethyl-3-[[6-methyl-4-[2-(1H-pyrrolo[2,3-b]pyridin-6-ylamino)pyrazolo[1,5-a]pyridin-5-yl]-3-pyridyl]oxy]propanenitrile], 0.00132 µM.
Take `Cc1cc(-c2ccn3nc(Nc4cc(C)nc(C)n4)cc3c2)c(OCC2(C#N)CC2)cn1` [Example 560, 1-[[4-[2-[(2,6-dimethylpyrimidin-4-yl)amino]pyrazolo[1,5-a]pyridin-5-yl]-6-methyl-3-pyridyl]oxymethyl]cyclopropanecarbonitrile]: the IC50 was 0.0616 µM.
In the case of `Cc1cc(-c2ccn3nc(Nc4cc(C)c(=O)n(C5CC5)n4)cc3c2)c(OC[C@@H]2COCCO2)cn1` [Example 561, 2-cyclopropyl-6-[[5-[5-[[(2S)-1,4-dioxan-2-yl]methoxy]-2-methyl-4-pyridyl]pyrazolo[1,5-a]pyridin-2-yl]amino]-4-methyl-pyridazin-3-one], the 50% inhibitory concentration (IC50) is 0.0619 µM.
The same measure, in the same setting: with `Cc1cc(-c2ccn3nc(Nc4cc(C)c(=O)n(C5CC5)n4)cc3c2)c(OC[C@H]2OCC[C@@H]2O)cn1` [Example 317, 2-cyclopropyl-6-[[5-[5-[[(2R,3S)-3-hydroxytetrahydrofuran-2-yl]methoxy]-2-methyl-4-pyridyl]pyrazolo[1,5-a]pyridin-2-yl]amino]-4-methyl-pyridazin-3-one] the figure was 0.0017 µM.
The same measure, in the same setting: then `Cc1cc(-c2ccn3nc(NC(=O)C4CC4)cc3c2)c(O[C@H]2CCC[C@H](O)C2)cn1` (single isomer, unassigned) [Example 195, trans-N-(5-(5-(((1*S,3*S)-3-hydroxycyclohexyl)oxy)-2-methylpyridin-4-yl)pyrazolo[1,5-a]pyridin-2-yl)cyclopropanecarboxamide], with 0.0116 µM; and `Cc1cc(-c2ccn3nc(Nc4cc(C)c(=O)[nH]n4)cc3c2)c(OCC(C)(C)O)cn1` [Example 208, 3-[[5-[5-(2-hydroxy-2-methyl-propoxy)-2-methyl-4-pyridyl]pyrazolo[1,5-a]pyridin-2-yl]amino]-5-methyl-1H-pyridazin-6-one], with 0.00856 µM.
The same measure, in the same setting: with `Cc1cc(-c2ccn3nc(Nc4cc(C)nc(C)n4)cc3c2)c(OC[C@@H](O)C2(C)CC2)cn1` (single isomer, unassigned) [Example 549, (*S)-2-[[4-[2-[(2,6-dimethylpyrimidin-4-yl)amino]pyrazolo[1,5-a]pyridin-5-yl]-6-methyl-3-pyridyl]oxy]-1-(1-methylcyclopropyl)ethanol] the figure was 0.0416 µM.
In the case of `Cc1cc(-c2ccn3nc(NC(=O)C4CC4)cc3c2)c(OC2CCC(=O)CC2)cn1` [Example 186, N-[5-[2-methyl-5-(4-oxocyclohexoxy)-4-pyridyl]pyrazolo[1,5-a]pyridin-2-yl]cyclopropanecarboxamide], the half-maximal inhibitory concentration (IC50) is 0.0164 µM.
The same measure, in the same setting: then `CC(C)(C#N)COc1cnc(OC(F)F)cc1-c1ccn2nc(Nc3cc4c(cn3)CNCC4)cc2c1` [Example 716, 3-[[6-(difluoromethoxy)-4-[2-(5,6,7,8-tetrahydro-2,7-naphthyridin-3-ylamino)pyrazolo[1,5-a]pyridin-5-yl]-3-pyridyl]oxy]-2,2-dimethyl-propanenitrile], with 0.0118 µM.
On the same count and under the same terms, then `Cc1cc(-c2ccn3nc(Nc4ccc(C)nn4)cc3c2)c(OC[C@]23C[C@H](CO2)N(C)C3)cn1` [Example 256, 5-[2-methyl-5-[[(1R,4R)-2-methyl-5-oxa-2-azabicyclo[2.2.1]heptan-4-yl]methoxy]-4-pyridyl]-N-(6-methylpyridazin-3-yl)pyrazolo[1,5-a]pyridin-2-amine], with 0.0198 µM.
The same measure, in the same setting: with `Cc1cc(-c2ccn3nc(Nc4cnccn4)cc3c2)c(OC[C@@H]2CN(C)CCO2)cn1` [Example 515, 5-[2-methyl-5-[[(2S)-4-methylmorpholin-2-yl]methoxy]-4-pyridyl]-N-pyrazin-2-yl-pyrazolo[1,5-a]pyridin-2-amine] the figure was 0.000864 µM.
For `Cc1cc(-c2cn3cc(NC(=O)C4CC4)nc3cn2)c(O[C@H]2CC[C@@H](O)CC2)cn1` [Example 655, N-[6-[5-(4-hydroxycyclohexoxy)-2-methyl-4-pyridyl]imidazo[1,2-a]pyrazin-2-yl]cyclopropanecarboxamide], the IC50 amounted to 0.0943 µM.
